Like-named read-outs stand apart in the source and are kept apart here.

The results in this text go back to patent US20250282802A1, “P[…] AND METHODS” (priority 2020, published 2025).

One assay relates to SK-ML-28 (melanoma). In words: Cytotoxicity profiling (Alamar Blue), SK-ML-28. The assay is classed as cell-based. Conditions: Homo sapiens; SK-ML-28, Alamar Blue, 72-hour treatment. As to the method: FIG. 8. Cytotoxicity of pantaphos across various cancer cell lines. Assays were conducted as described (mBio. 2021 Feb. 2; 12(1):e03402-20), using the Alamar Blue method with 72-hour treatment using Raptinal ([…]) as Dead cell control; n=3. Cell seeding densities: CT26 (colon carcinoma) 2000 c/w; HOS (osteosarcoma) 2500 c/w; ES-2 (ovarian carcinoma), HCT-116 (colorectal carcinoma), A-549 (lung carcinoma), A-172 (glioblastoma), D54 (glioblastoma), U87 (glioblastoma), T98G (glioblastoma), SK-ML-28 (melanoma), MCF-7 (breast cancer), AM38 (glioblastoma) and MDA-MB-231 (breast cancer) 3000 c/w; U118MG (malignant glioma) 4000 c/w; HepG2 (liver cancer) 8000 c/w. c/w=cells per well. […]
Cell culture cytotoxicity screening. The compounds were evaluated for their ability to kill cancer cell lines in culture, using HOS (osteosarcoma); ES-2 (ovarian cancer); HCT 116 (colon cancer); A549 (lung carcinoma); and A172 (glioma) cells. Human skin fibroblast cells (HFF-1) were also assessed. […] 72 hours post-treatment, cell viability was assessed using the Alamar Blue method (http://www.bio-rad-antibodies.com/measuring-cytotoxicity-proliferation-spectrophotometry-fluorescence-alamarBlue.html). […] Conversion of Alamar Blue was measured with a plate reader (SpectraMax M3; Molecular Devices) by fluorescence (excitation wavelength: 555 nm; emission wavelength: 585 nm; cutoff 570 nm; autogain). […]
For orientation: Resazurin is reduced to fluorescent resorufin, in cell work by metabolically active cells.

For assay [1], the system named is Aspergillus fumigatus 1163. Nature of the assay: Fungicidal bioassay (MIC), Aspergillus fumigatus. The assay is classed as cell-based. Conditions: for MIC: Aspergillus fumigatus, 1163, 48 hrs growth, CLSI. As to the method: Bacteria, plasmids and growth conditions. Bacterial strains, plasmids and primers used in this study are described in Table 3 and 4. General chemical and molecular biology reagents were purchased from Sigma-Aldrich or New England Biolabs. Phosphinothricin (glufosinate) was purchased from GoldBio (CAS #77182-82-2). Standard bacterial growth media were prepared as described (Current Protocols in Molecular Biology 2019, 125:e81, e82, e83). E. coli strains were typically grown at 37° C.; P. ananatis strains were typically grown at 30° C. Phosphonate induction media (PIM) was prepared as follows: 8.37 g/L MOPS, 0.72 g/L Tricine, 0.58 g/L NaCl, 0.51 g/L NH4Cl, 1.6 g/L KOH, 0.1 g/L MgCl2·6H2O, 0.05 g/L K2SO4, 0.2 g/L K2HIPO4 were dissolved H2O and steam sterilized for 20 min at 121° C. After cooling, 1× sterile trace element solution was added (1000× stock: 1.5 g/L nitrilotriacetic acid trisodium salt, 0.8 g/L Fe(NH4)2(SO4)2·7H2O, 0.2 g/L Na2SeO3, 0.1 g/L CoCl2·6H2O, 0.1 g/L MnSO4·H2O, 0.1 g/L Na2MoO4·2H2O, 0.1 g/L Na2WO4·2H2O, 0.1 g/L ZnSO4·7H2O, 0.1 g/L NiCl2·6H2O, 0.01 g/L H3BO3, 0.01 g/L CuSO4·5H2O) followed by addition of 1% (v/v) sterile glycerol and 50 μg/mL sterile kanamycin. For culturing of Candida and Saccharomyces strains, Rosewell Park Memorial Institute 1640 medium (RPMI; Sigma-Aldrich R6504) was used for liquid culturing and Sabouraud Dextrose Agar (SDA; Difco™ 210950) for solid plating unless otherwise specified. For Aspergillus strains, Rosewell Park Memorial Institute 1640 medium (RPMI) was used for liquid culturing and Potato Dextrose Agar (PDA; Difco™ 213400) was used for solid plating unless otherwise specified. YMM medium (6.7 g/L yeast nitrogen base without amino acids [BD Difco™ 291940], 20 g/L glucose, 1× trace element solution) was used as minimal media for fungal strains.
Fungicidal bioassays. […] Minimum Inhibitory Concentration (MIC) was determined visually by finding the concentration of compound at which there was no visual difference between that concentration and the uninoculated media control.

Consider `O=C(O)/C=C(\C(=O)O)C(O)P(=O)(O)O` (stereo not shown) [pantaphos, 2-(hydroxy(phosphono)methyl)maleate], for which the Emax – broadly, the maximal effect, on the per cent scale that the assay sets – with SK-ML-28 (melanoma) fell in the range of 47 to 51%. The MIC (as a rule, the lowest concentration that inhibits growth of the organism) in assay [1] (M9 minimal medium, read-out: MIC, Minimal medium) is above 125 µM; in assay [1] (RPMI 1640 medium, read-out: MIC, Rich medium) it was above 125 µM. Moreover, the “effect on the growth of fungi, in words” value in assay [1] (rich or minimal media) is reported as “no effect on the growth”.
